“Also recorded” adds a separate entry of the source.
Key:
[1] = target: T1, EML4-ALK (F1174S) V3a (Homo sapiens, UniProt Q9HC35+Q9UM73, F1174S); conditions: NL20 cells, 0 nM to 1000 nM, pALK-Y1604 readout
T1 sequence (Q9HC35+Q9UM73 with tags, fused parts or gaps Q9UM73:F1174S): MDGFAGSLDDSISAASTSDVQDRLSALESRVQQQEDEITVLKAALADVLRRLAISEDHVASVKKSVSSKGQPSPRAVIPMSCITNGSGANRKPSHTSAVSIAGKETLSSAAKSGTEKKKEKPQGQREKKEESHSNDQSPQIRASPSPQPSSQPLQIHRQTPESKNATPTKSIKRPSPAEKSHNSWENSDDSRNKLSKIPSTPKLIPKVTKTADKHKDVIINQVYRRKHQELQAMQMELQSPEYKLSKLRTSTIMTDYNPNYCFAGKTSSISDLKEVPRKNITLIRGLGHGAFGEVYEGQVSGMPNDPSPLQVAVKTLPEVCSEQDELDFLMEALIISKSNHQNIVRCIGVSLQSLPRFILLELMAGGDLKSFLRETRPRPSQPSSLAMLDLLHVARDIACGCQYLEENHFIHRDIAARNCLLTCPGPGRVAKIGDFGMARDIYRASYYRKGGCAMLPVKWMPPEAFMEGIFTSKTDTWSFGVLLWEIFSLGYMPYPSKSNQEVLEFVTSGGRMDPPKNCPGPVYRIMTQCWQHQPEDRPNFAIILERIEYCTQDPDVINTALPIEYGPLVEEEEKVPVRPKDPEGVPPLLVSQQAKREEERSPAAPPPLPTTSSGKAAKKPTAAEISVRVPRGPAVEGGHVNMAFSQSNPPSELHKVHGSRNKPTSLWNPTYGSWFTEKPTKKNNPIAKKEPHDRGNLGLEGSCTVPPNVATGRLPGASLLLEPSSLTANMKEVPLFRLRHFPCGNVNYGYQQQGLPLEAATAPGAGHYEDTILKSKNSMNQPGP
Method: (§1) SK-N-AS cells were transfected with Lipofectamine 3000 (Invitrogen, Carlsbad. CA) following the manufacturer’s instruction. […] After 24-36 hours culture, cells were treated with serial dilutions of the indicated inhibitors for 2 hours.
Cells were washed with ice-cold PBS prior to harvest in lysis buffer [25 mM of Tris-Cl, pH7.5, 150 mM of NaCl, 1% (v/v) Triton X-100, 1 mM of DTT, and protease inhibitor cocktail]. Cell lysates were clarified by centrifugation at 14,000 rpm for 15 minutes at 4°C. Samples were boiled in 1x SDS sample buffer and analyzed by immunoblotting. Enhanced chemiluminescence (ECL) and fluorescence blot images were taken with LI-COR Odyssey FC instrument and Image Studio 5.2 software (Lincoln, NE). […] The intensity of different protein bands was quantified with Image Studio Lite 5.2 software (Lincoln, NE). Ratios were shown either directly or normalized. […] GraphPad Prism 6.0 was used to calculate IC50 values by fitting data to a log (inhibitor concentration) vs. normalized response (variable slope) equation.
We therefore tested the sensitivity of these EML4-ALK mutants to ALK inhibitors. […] Dose-dependent ALK activity responses were followed with anti-pALK-Y1604 as readout.
Dose-dependent ALK activity responses were followed employing anti-pALK-Y1604 as readout.

[2] = tested on: EML4-ALK F1174S NSCLC; conditions: one NSCLC patient, after resistance to crizotinib; alectinib 6 months, ceritinib 3 months, brigatinib 1 month
[3] = tested on: EML4-ALK V1 mRNA; test: RT-PCR for EML4-ALK V1 mRNA after ALK inhibition in DFCI032 cells; type: cell-based, human; conditions: 30 nM lorlatinib, 24 hours
Method: Reverse transcription was performed with the SuperScript IV First-Strand Synthesis System (Invitrogen, Carlsbad. CA) following the manufacturer’s protocol. PCR was performed with DreamTaq Hot Start Green PCR Master Mix (ThermoScientific, Waltham, MA). The PCR primers used for ALK were 5’-[…]-3’ and 5’-[…]-3’; and the primers for Actin were 5’-[…]-3’ and 5’-[…]-3’.
as §1

[4] = tested on: wildtype and F1174S mutant EML4-ALK V3a and EML4-ALK V3b; test: Dose-dependent pALK-Y1604 response to crizotinib or lorlatinib in NL20 cells, wildtype and F1174S mutant V3a/b (immunoblot, qualitative); type: cell-based, human; conditions: 0 nM to 1000 nM, 2 hours

SMILES	sensitivity of EML4-ALK (F1174S) V3a to ALK inhibition relative to EML4-ALK V3a (qualitative) [1]	clinical response to ALK TKI [2]	ALK mRNA levels in response to treatment [3]	inhibition of ALK-Y1604 phosphorylation (qualitative) [4]
Cc1cc(Nc2ncc(Cl)c(Nc3ccccc3S(=O)(=O)C(C)C)n2)c(OC(C)C)cc1C1CCNCC1 [ceritinib]	more sensitive	no detectable response		
C[C@H]1Oc2cc(cnc2N)-c2c(nn(C)c2C#N)CN(C)C(=O)c2ccc(F)cc21 [lorlatinib]			decreased ALK mRNA levels	superior inhibition effect
COc1cc(N2CCC(N3CCN(C)CC3)CC2)ccc1Nc1ncc(Cl)c(Nc2ccccc2P(C)(C)=O)n1 [brigatinib]	strongest effect; also recorded: more sensitive	no detectable response		
